Experimental data: patent publication US20240165123A1, “USE OF A COMPOUND CONTAINING A TRICYCLIC HETEROARYL GROUP” (CSPC Zhongqi Pharmaceutical Technology (Shijiazhuang) Co., …, priority 2021, published 2024)
Where two headings read alike, the source gives them in different places.

Test system: MRL/lpr lupus erythematosus model mice
Type: in vivo
Design: key to Kidney IHC (IgG) pathological score, bilateral kidneys: product score; 0 negative, 1-3 low, 4-8 medium, 9-12 high
Details: for Area under the urine protein curve: 16 weeks; for Kidney HE pathological score of both kidneys, Activity index / Kidney HE pathological score of both kidneys, Chronicity index / Kidney HE pathological score of both kidneys, Tubulointerstitial lesions / Kidney IHC (IgG) pathological score, bilateral kidneys / Skin HE pathological score / Total kidney weight / Total kidney weight/body weight %: after 17 weeks of treatment; for IL-6 concentration in serum (ELISA) / Spleen weight / Spleen weight/body weight % / TNF-alpha concentration in serum (ELISA) / Total lymph node weight / Total lymph node weight/body weight %: end of the test
Procedure: • female MRL/lpr mice aged 4 weeks, number: 50; • female C57BL/6 mice aged 4 weeks, number: 10.
According to the concentration of the serum anti-ds-DNA antibody, female MRL/lpr mice were randomly divided into five groups: model group: solvent (aqueous solution containing 0.4% Tween 80 and 0.5% methylcellulose) 10 mL/kg BID, positive control group: prednisone 6 mg/kg QD, compound (I) 20, 40 and 60 mg/kg BID groups, the administration volumes respectively: 10 mL/kg. In addition, female C57BL/6 mice served as the normal control group. The animals in the Compound (I) group and the model group were administrated with the medicament or the solvent by gavage twice a day starting from the beginning of five weeks of age with an interval of 8 hours between two administrations; prednisone was administered to the animals by gavage once a day from the beginning of five weeks of age; the administration was totally performed for 17 weeks.
Two mice in the model group died at 15 and 16 weeks of administration, respectively, and 8 mice remained at the end of the test; one mouse in the compound (I) 20 mg/kg bid group died in the later period of the 16th week of administration, and 9 mice remained at the end of the test; and no death of mice occurred in other groups.
The skin destructions on the face, ears and back of mice were observed and scored once a week for 17 times totally.
Scoring system: 1) red swelling and bleeding of the skin; 2) the extent of hair loss and skin dryness; 3) edema; 4) excoriation/corrosion; 5) lichenoid sclerotic plaque and other symptoms. The score of each item was as follows: normal=0 points; slight=1 point; moderate=2 points; severe=3 points. The severity of skin destruction was determined according to the total score of each evaluated symptom. […]
The lymph nodes of MRL/lpr mice were scored once a week for a total of 17 times during the test.
According to the lymph node diameter (cm), the score values were 0-6 points: • 0 point: normal; • 1 point: small (the diameter at one location of points on both sides was less than 1 cm); • 2 points: small (the diameters at two location of points on both sides were less than 1 cm); • 3 points: small (the diameters at three location of points on both sides were less than 1 cm); • 4 points: large (the diameter at one location of points on both sides was larger than 1 cm, the diameters at the other two location of points on both sides were less than 1 cm); • 5 points: large (the diameters at two location of points on both sides were larger than 1 cm, and the diameter at the other location of points on both sides was less than 1 cm); • 6 points: large (the diameters at three location of points on both sides were greater than 1 cm). […]
Kidney HE scoring criteria: […]
During the test, the concentration of serum anti-ds-DNA antibody of mice were detected every 4 weeks for 16 weeks.
At the end of the test, the serum cytokine levels of mice were detected by ELISA. […] See Table 25 and FIG. 17 for details.

NC(=O)c1cnc(Nc2ccc3c(c2)OC[C@H]2CN(S(=O)(=O)C4CC4)CCN32)nc1NC1CC1 [Compound (I), (R)-4-(cyclopropylamino)-2-((3-(cyclopropylsulfonyl)-1,2,3,4,4a,5-hexahydrobenzo[b]pyrazolo[1,2-d][1,4]oxazin-8-yl)amino)pyrimidine-5-arboxamide]
Area under the urine protein curve (20 mg/kg BID): 5646.42 ± 587.29 wk*mg/L
Kidney HE pathological score of both kidneys, Activity index (20 mg/kg BID): 5.20 ± 0.73
Kidney HE pathological score of both kidneys, Chronicity index (20 mg/kg BID): 7.00 ± 0.54
Kidney HE pathological score of both kidneys, Tubulointerstitial lesions (20 mg/kg BID): 13.50 ± 0.52
Kidney IHC (IgG) pathological score, bilateral kidneys (20 mg/kg BID): 8.90 ± 0.72
Skin HE pathological score (20 mg/kg BID): 3.56 ± 0.44
Total kidney weight (20 mg/kg BID): 0.4146 ± 0.02 g
Total kidney weight/body weight % (20 mg/kg BID): 1.1855 ± 0.05%
IL-6 concentration in serum (ELISA) (20 mg/kg BID): 52.38 ± 5.29 pg/mL
Spleen weight (20 mg/kg BID): 0.4658 ± 0.04 g
Spleen weight/body weight % (20 mg/kg BID): 1.3336 ± 0.11 %
TNF-alpha concentration in serum (ELISA) (20 mg/kg BID): 48.03 ± 4.12 pg/mL
Total lymph node weight (20 mg/kg BID): 1.6823 ± 0.24 g
Total lymph node weight/body weight % (20 mg/kg BID): 4.7396 ± 0.60%
Lymph node score (20 mg/kg BID, week 0): 0.0 ± 0.00
Skin score (skin destruction) (20 mg/kg BID, week 0): 0.0 ± 0.00
Skin score (skin destruction) (20 mg/kg BID, week 4): 0.0 ± 0.00
Lymph node score (20 mg/kg BID, week 6): 0.0 ± 0.00
Lymph node score (20 mg/kg BID, week 7): 0.6 ± 0.22
Skin score (skin destruction) (20 mg/kg BID, week 8): 0.0 ± 0.00
Lymph node score (20 mg/kg BID, week 9): 2.0 ± 0.26
Lymph node score (20 mg/kg BID, week 11): 2.8 ± 0.29
Lymph node score (20 mg/kg BID, week 12): 3.0 ± 0.21
Skin score (skin destruction) (20 mg/kg BID, week 12): 0.0 ± 0.00
Skin score (skin destruction) (20 mg/kg BID, week 14): 0.2 ± 0.20
Skin score (skin destruction) (20 mg/kg BID, week 16): 0.2 ± 0.13
Lymph node score (20 mg/kg BID, week 17): 3.6 ± 0.24
Skin score (skin destruction) (20 mg/kg BID, week 17): 0.2 ± 0.15
Area under the urine protein curve (40 mg/kg BID): 3851.50 ± 340.32 wk*mg/L
Kidney HE pathological score of both kidneys, Activity index (40 mg/kg BID): 4.00 ± 0.42
Kidney HE pathological score of both kidneys, Chronicity index (40 mg/kg BID): 7.60 ± 0.50
Kidney HE pathological score of both kidneys, Tubulointerstitial lesions (40 mg/kg BID): 12.30 ± 1.03
Kidney IHC (IgG) pathological score, bilateral kidneys (40 mg/kg BID): 7.40 ± 0.56
Skin HE pathological score (40 mg/kg BID): 3.60 ± 0.37
Total kidney weight (40 mg/kg BID): 0.3704 ± 0.01 g
Total kidney weight/body weight % (40 mg/kg BID): 1.0997 ± 0.05%
IL-6 concentration in serum (ELISA) (40 mg/kg BID): 63.17 ± 12.60 pg/mL
Spleen weight (40 mg/kg BID): 0.3184 ± 0.03 g
Spleen weight/body weight % (40 mg/kg BID): 0.9485 ± 0.09 %
TNF-alpha concentration in serum (ELISA) (40 mg/kg BID): 32.29 ± 4.62 pg/mL
Total lymph node weight (40 mg/kg BID): 0.7319 ± 0.12 g
Total lymph node weight/body weight % (40 mg/kg BID): 2.1603 ± 0.35 %
Concentration of serum anti-ds-DNA antibody (40 mg/kg BID, week 0): 3.32 ± 0.39 µg/mL
Lymph node score (40 mg/kg BID, week 0): 0.0 ± 0.00
Skin score (skin destruction) (40 mg/kg BID, week 0): 0.0 ± 0.00
Concentration of serum anti-ds-DNA antibody (40 mg/kg BID, week 4): 346.06 ± 35.04 µg/mL
Skin score (skin destruction) (40 mg/kg BID, week 4): 0.0 ± 0.00
Lymph node score (40 mg/kg BID, week 6): 0.0 ± 0.00
Lymph node score (40 mg/kg BID, week 7): 0.3 ± 0.15
Concentration of serum anti-ds-DNA antibody (40 mg/kg BID, week 8): 885.04 ± 96.38 µg/mL
Skin score (skin destruction) (40 mg/kg BID, week 8): 0.0 ± 0.00
Lymph node score (40 mg/kg BID, week 9): 0.7 ± 0.26
Lymph node score (40 mg/kg BID, week 11): 0.9 ± 0.23
Concentration of serum anti-ds-DNA antibody (40 mg/kg BID, week 12): 1390.83 ± 266.11 µg/mL
Lymph node score (40 mg/kg BID, week 12): 1.2 ± 0.25
Skin score (skin destruction) (40 mg/kg BID, week 12): 0.0 ± 0.00
Skin score (skin destruction) (40 mg/kg BID, week 14): 0.0 ± 0.00
Concentration of serum anti-ds-DNA antibody (40 mg/kg BID, week 16): 1198.59 ± 86.64 µg/mL
Skin score (skin destruction) (40 mg/kg BID, week 16): 0.0 ± 0.00
Lymph node score (40 mg/kg BID, week 17): 1.5 ± 0.34
Skin score (skin destruction) (40 mg/kg BID, week 17): 0.0 ± 0.00
Area under the urine protein curve (60 mg/kg BID): 4138.70 ± 1048.57 wk*mg/L
Kidney HE pathological score of both kidneys, Activity index (60 mg/kg BID): 3.90 ± 0.75
Kidney HE pathological score of both kidneys, Chronicity index (60 mg/kg BID): 6.00 ± 0.75
Kidney HE pathological score of both kidneys, Tubulointerstitial lesions (60 mg/kg BID): 8.50 ± 0.91
Kidney IHC (IgG) pathological score, bilateral kidneys (60 mg/kg BID): 6.90 ± 0.28
Skin HE pathological score (60 mg/kg BID): 2.60 ± 0.37
Total kidney weight (60 mg/kg BID): 0.3639 ± 0.02 g
Total kidney weight/body weight % (60 mg/kg BID): 1.1424 ± 0.07%
IL-6 concentration in serum (ELISA) (60 mg/kg BID): 35.99 ± 7.36 pg/mL
Spleen weight (60 mg/kg BID): 0.2805 ± 0.03 g
Spleen weight/body weight % (60 mg/kg BID): 0.8892 ± 0.10 %
TNF-alpha concentration in serum (ELISA) (60 mg/kg BID): 30.61 ± 4.72 pg/mL
Total lymph node weight (60 mg/kg BID): 0.5680 ± 0.08 g
Total lymph node weight/body weight % (60 mg/kg BID): 1.7879 ± 0.26 %
Concentration of serum anti-ds-DNA antibody (60 mg/kg BID, week 0): 3.33 ± 0.42 µg/mL
Lymph node score (60 mg/kg BID, week 0): 0.0 ± 0.00
Skin score (skin destruction) (60 mg/kg BID, week 0): 0.0 ± 0.00
Concentration of serum anti-ds-DNA antibody (60 mg/kg BID, week 4): 249.26 ± 24.12 µg/mL
Skin score (skin destruction) (60 mg/kg BID, week 4): 0.0 ± 0.00
Lymph node score (60 mg/kg BID, week 6): 0.0 ± 0.00
Lymph node score (60 mg/kg BID, week 7): 0.1 ± 0.10
Concentration of serum anti-ds-DNA antibody (60 mg/kg BID, week 8): 806.75 ± 110.22 µg/mL
Skin score (skin destruction) (60 mg/kg BID, week 8): 0.0 ± 0.00
Lymph node score (60 mg/kg BID, week 9): 0.3 ± 0.15
Lymph node score (60 mg/kg BID, week 11): 0.4 ± 0.16
Concentration of serum anti-ds-DNA antibody (60 mg/kg BID, week 12): 1168.19 ± 113.75 µg/mL
Lymph node score (60 mg/kg BID, week 12): 0.5 ± 0.22
Skin score (skin destruction) (60 mg/kg BID, week 12): 0.0 ± 0.00
Skin score (skin destruction) (60 mg/kg BID, week 14): 0.0 ± 0.00
Concentration of serum anti-ds-DNA antibody (60 mg/kg BID, week 16): 1272.27 ± 50.19 µg/mL
Skin score (skin destruction) (60 mg/kg BID, week 16): 0.0 ± 0.00
Lymph node score (60 mg/kg BID, week 17): 1.0 ± 0.26
Skin score (skin destruction) (60 mg/kg BID, week 17): 0.0 ± 0.00
Mice died during the test (mouse, in vivo): one
